Measurements as given in patent US20200308170A1, “KRAS G12C INHIBITORS” (Mirati Therapeutics, Inc., priority 2017, published 2020).

Target: T1, KRas G12C (Homo sapiens, UniProt P01116, C118S/C51S/C80L/G12C)
T1 construct: GDP-loaded K-Ras (1-169) G12C, C51S, C80L, C118S
Assay: KRas G12C Modification Assay (LCMS detection of covalent adduct)
Type: binding
Conditions: 5 μM concentration for 3 hours; LC/MS of intact protein; higher POC = higher degree of modification
Method: A 10 μL aliquot of each protein solution was then transferred to a 384 well microtiter plate. Initial compound stocks were generated at fifty times their desired final assay concentration in DMSO.
Exemplary compounds of Formula (II) were diluted 25-fold into K-Ras Assay Buffer to a final of two times their final concentration. A 10 μL aliquot of each diluted compound solution was then added to each of the protein solutions in the microtiter plate to initiate reaction. […] At each time point, the reactions were quenched with 20 μL of a 25 mM acetic acid solution. […] Once all reactions were quenched, the plates were heat sealed and the samples were injected into a LC/MS system for data acquisition.
Samples were injected in their liquid phase onto a C-3 reverse phase column to remove assay buffer and prepare the samples for mass spectrometer. The proteins were eluted from the column using an acetonitrile gradient and fed directly into the mass analyzer. Initial raw data analysis took place in Agilent MassHunter software immediately post data acquisition.
Raw data analysis of the intact protein was exclusively a deconvolution of the multiple charge states of each protein in solution using a maximum entropy deconvolution provided in Mass Hunter. To minimize complexity, only the data over limited mass ranges were considered for analysis, with a minimum of one Dalton mass step intervals. The heights of all masses identified during raw data analysis were exported to be further analyzed in Spotfire® data analysis software.
Final data analysis was a multistep process in the Spotfire® data analysis software package. Briefly, each protein mass was calculated as a percent of the total signal of that sample, that percentage was then normalized to the percentage of signal of the protein in the absence of reactive compounds. Those normalized signals were reported as normalized percent of control (POC). […] Key: “A”≤25% POC; “B”>25% POC−≤50% POC; “C”>50% POC and ND=not determined.

| POC (normalized percent of control; degree of covalent modification of KRas G12C) | SMILES |
| --- | --- |
| C (“C”>50% POC) | CN(C/C=C/C(=O)N1CCN(c2nc(OC[C@@H]3CCCN3C)nc3c2CCN(c2cccc4cccc(Cl)c24)C3)C[C@@H]1CC#N)CC(F)(F)F [Example 11, 2-[(2S)-4-[7-(8-chloro-1-naphthyl)-2-[[(2S)-1-methylpyrrolidin-2-yl]methoxy]-6,8-dihydro-5H-pyrido[3,4-d]pyrimidin-4-yl]-1-[(E)-4-[methyl(2,2,2-trifluoroethyl)amino]but-2-enoyl]piperazin-2-yl]acetonitrile] |
| C (“C”>50% POC) | CN1CCC[C@H]1COc1nc2c(c(N3CCN(C(=O)/C=C/CO)[C@@H](CC#N)C3)n1)CCN(c1cccc3cccc(Cl)c13)C2 [Example 42, 2-[(2S)-4-[7-(8-chloro-1-naphthyl)-2-[[(2S)-1-methylpyrrolidin-2-yl]methoxy]-6,8-dihydro-5H-pyrido[3,4-d]pyrimidin-4-yl]-1-[(E)-4-hydroxybut-2-enoyl]piperazin-2-yl]acetonitrile] |
| C (“C”>50% POC) | Cc1cccc2cccc(N3CCc4c(nc(OC[C@@H]5CCCN5C)nc4N4CCN(C(=O)/C=C/C#N)[C@@H](CC#N)C4)C3)c12 [Example 30, (E)-4-((S)-2-(cyanomethyl)-4-(7-(8-methylnaphthalen-1-yl)-2-(((S)-1-methylpyrrolidin-2-yl)methoxy)-5,6,7,8-tetrahydropyrido[3,4-d]pyrimidin-4-yl)piperazin-1-yl)-4-oxobut-2-enenitrile] |
| C (“C”>50% POC) | Cc1cccc2cccc(N3CCc4c(nc(OC[C@@H]5CCCN5C)nc4N4CCN(C(=O)/C=C/CO)[C@@H](CC#N)C4)C3)c12 [Example 39, 2-((S)-1-((E)-4-hydroxybut-2-enoyl)-4-(7-(8-methylnaphthalen-1-yl)-2-(((S)-1-methylpyrrolidin-2-yl)methoxy)-5,6,7,8-tetrahydropyrido[3,4-d]pyrimidin-4-yl)piperazin-2-yl)acetonitrile] |
| A (“A”≤25% POC) | C=C(OC)C(=O)N1CCN(c2nc(OC[C@@H]3CCCN3C)nc3c2CCN(c2cccc4cccc(Cl)c24)C3)C[C@@H]1CC#N [Example 43, 2-[(2S)-4-[7-(8-chloro-1-naphthyl)-2-[[(2S)-1-methylpyrrolidin-2-yl]methoxy]-6,8-dihydro-5H-pyrido[3,4-d]pyrimidin-4-yl]-1-(2-methoxyprop-2-enoyl)piperazin-2-yl]acetonitrile] |
| C (“C”>50% POC) | Cc1cccc2cccc(N3CCc4c(nc(OC[C@@H]5CCCN5C)nc4N4CCN(C(=O)/C=C\C#N)[C@@H](CC#N)C4)C3)c12 [Example 31, (Z)-4-((S)-2-(cyanomethyl)-4-(7-(8-methylnaphthalen-1-yl)-2-(((S)-1-methylpyrrolidin-2-yl)methoxy)-5,6,7,8-tetrahydropyrido[3,4-d]pyrimidin-4-yl)piperazin-1-yl)-4-oxobut-2-enenitrile] |

Second part, the molecule before the results:

| SMILES | POC (normalized percent of control; degree of covalent modification of KRas G12C) |
| --- | --- |
| C=C(Cl)C(=O)N1CCN(c2nc(OC[C@@H]3CCCN3C)nc3c2CCN(c2cccc(C)c2C)C3)C[C@@H]1CC#N [Example 2, 2-[(2S)-1-(2-chloroprop-2-enoyl)-4-[7-(2,3-dimethylphenyl)-2-[[(2S)-1-methylpyrrolidin-2-yl]methoxy]-6,8-dihydro-5H-pyrido[3,4-d]pyrimidin-4-yl]piperazin-2-yl]acetonitrile] | C (“C”>50% POC) |
| C=C(OC)C(=O)N1CCN(c2nc(OC[C@@H]3CCCN3C)nc3c2CCN(c2cccc4cccc(C)c24)C3)C[C@@H]1CC#N [Example 41, 2-[(2S)-1-(2-methoxyprop-2-enoyl)-4-[7-(8-methyl-1-naphthyl)-2-[[(2S)-1-methylpyrrolidin-2-yl]methoxy]-6,8-dihydro-5H-pyrido[3,4-d]pyrimidin-4-yl]piperazin-2-yl]acetonitrile] | A (“A”≤25% POC) |
| C=C(F)C(=O)N1CCN(c2nc(OC[C@@H]3CCCN3C)nc3c2CCN(c2cccc4cccc(C)c24)C3)C[C@@H]1CC#N [Example 36, 2-((S)-1-(2-fluoroacryloyl)-4-(7-(8-methylnaphthalen-1-yl)-2-(((S)-1-methylpyrrolidin-2-yl)methoxy)-5,6,7,8-tetrahydropyrido[3,4-d]pyrimidin-4-yl)piperazin-2-yl)acetonitrile] | C (“C”>50% POC) |
| C=C(C(=O)N1CCN(c2nc(OC[C@@H]3CCCN3C)nc3c2CCN(c2cccc4cccc(C)c24)C3)C[C@@H]1CC#N)C(F)(F)F [Example 21, 2-((S)-4-(7-(8-methylnaphthalen-1-yl)-2-(((S)-1-methylpyrrolidin-2-yl)methoxy)-5,6,7,8-tetrahydropyrido[3,4-d]pyrimidin-4-yl)-1-(2-(trifluoromethyl)acryloyl)piperazin-2-yl)acetonitrile] | A (“A”≤25% POC) |
| Cc1cccc2cccc(N3CCc4c(nc(OC[C@@H]5CCCN5C)nc4N4CCN(C(=O)C5=CC(=O)CC5)[C@@H](CC#N)C4)C3)c12 [Example 26, 2-((S)-4-(7-(8-methylnaphthalen-1-yl)-2-(((S)-1-methylpyrrolidin-2-yl)methoxy)-5,6,7,8-tetrahydropyrido[3,4-d]pyrimidin-4-yl)-1-(3-oxocyclopent-1-ene-1-carbonyl)piperazin-2-yl)acetonitrile] | C (“C”>50% POC) |
| COC/C=C/C(=O)N1CCN(c2nc(OC[C@@H]3CCCN3C)nc3c2CCN(c2cccc(C)c2C)C3)C[C@@H]1CC#N [Example 18, 2-((S)-4-(7-(2,3-dimethylphenyl)-2-(((S)-1-methylpyrrolidin-2-yl)methoxy)-5,6,7,8-tetrahydropyrido[3,4-d]pyrimidin-4-yl)-1-((E)-4-methoxybut-2-enoyl)piperazin-2-yl)acetonitrile] | C (“C”>50% POC) |
| C=C(CO)C(=O)N1CCN(c2nc(OC[C@@H]3CCCN3C)nc3c2CCN(c2cccc(C)c2C)C3)C[C@@H]1CC#N [Example 17, 2-((S)-4-(7-(2,3-dimethylphenyl)-2-(((S)-1-methylpyrrolidin-2-yl)methoxy)-5,6,7,8-tetrahydropyrido[3,4-d]pyrimidin-4-yl)-1-(2-(hydroxymethyl)acryloyl)piperazin-2-yl)acetonitrile] | B (“B”>25% POC−≤50% POC) |
| Cc1cccc2cccc(N3CCc4c(nc(OC[C@@H]5CCCN5C)nc4N4CCN(C(=O)/C=C/Cn5cccn5)[C@@H](CC#N)C4)C3)c12 [Example 38, 2-((S)-1-((E)-4-(1H-pyrazol-1-yl)but-2-enoyl)-4-(7-(8-methylnaphthalen-1-yl)-2-(((S)-1-methylpyrrolidin-2-yl)methoxy)-5,6,7,8-tetrahydropyrido[3,4-d]pyrimidin-4-yl)piperazin-2-yl)acetonitrile] | C (“C”>50% POC) |
| C=C(F)C(=O)N1CCN(c2nc(OC[C@@H]3CCCN3C)nc3c2CCN(c2cccc(C)c2C)C3)C[C@@H]1CC#N [Example 1, 2-[(2S)-4-[7-(2,3-dimethylphenyl)-2-[[(2S)-1-methylpyrrolidin-2-yl]methoxy]-6,8-dihydro-5H-pyrido[3,4-d]pyrimidin-4-yl]-1-(2-fluoroprop-2-enoyl)piperazin-2-yl]acetonitrile] | C (“C”>50% POC) |
